Laboratory results taken from the supplement of paper PMC10307832.

Columns and labels:
Assay in all cases: relative viability (nuclei count vs DMSO), 5 days (fraction); higher = more cells survive
Selumetinib + Pemetrexed = compound: Cn1cnc2c(F)c(Nc3ccc(Br)cc3Cl)c(C(=O)NOCCO)cc21 [Selumetinib] + Nc1nc2[nH]cc(CCc3ccc(C(=O)N[C@@H](CCC(=O)O)C(=O)O)cc3)c2c(=O)[nH]1 [Pemetrexed] (partner 0.2 µM)
In short: (§1)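 After 5 days of treatment, lung cancer cells in 1536-well plates were fixed and stained in a single step (final 0.05% Triton X-100, 1% formaldehyde, 1 ug/ml Hoechst) and their nuclei counted on 4× images. Treatment had been applied by pin tool the day after seeding as one drug alone or as a fixed anchor-drug dose with five library-drug doses (not always all listed) in √10 steps. Relative viability is the nuclei count of treated wells divided by that of vehicle wells, and values are medians of duplicate plates.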

Venetoclax + OSI-027 = compound: CC1(C)CCC(CN2CCN(c3ccc(C(=O)NS(=O)(=O)c4ccc(NCC5CCOCC5)c([N+](=O)[O-])c4)c(Oc4cnc5[nH]ccc5c4)c3)CC2)=C(c2ccc(Cl)cc2)C1 [Venetoclax] + COc1cccc2cc(-c3nc([C@H]4CC[C@H](C(=O)O)CC4)n4ncnc(N)c34)[nH]c12 [OSI-027] (partner 0.5 µM)
In short: as §1

Selumetinib = compound: Cn1cnc2c(F)c(Nc3ccc(Br)cc3Cl)c(C(=O)NOCCO)cc21 [Selumetinib]
In short: (§2)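 Following overnight incubation at 37 °C, lung cancer cell lines in 1536-well plates were pinned with five library-drug doses (not always all listed) in √10 steps on vehicle-anchored plates. The cells then spent 5 days without medium change before a combined fix, permeabilisation and Hoechst stain, 4× imaging and MetaXpress nuclear counts. Viability is the treated-to-vehicle ratio of nuclei, taken as the median across plates. Only plates with control CV below 25% and at least one doubling passed.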

Venetoclax = compound: CC1(C)CCC(CN2CCN(c3ccc(C(=O)NS(=O)(=O)c4ccc(NCC5CCOCC5)c([N+](=O)[O-])c4)c(Oc4cnc5[nH]ccc5c4)c3)CC2)=C(c2ccc(Cl)cc2)C1 [Venetoclax]
In short: as §2

| Cell Line | relative viability (Selumetinib + Pemetrexed; first compound 0.02 µM) | relative viability (Selumetinib + Pemetrexed; first compound 0.06325 µM) | relative viability (Selumetinib + Pemetrexed; first compound 0.2 µM) | relative viability (Selumetinib + Pemetrexed; first compound 0.6325 µM) | relative viability (Venetoclax + OSI-027; first compound 0.01 µM) | relative viability (Venetoclax + OSI-027; first compound 0.03162 µM) | relative viability (Venetoclax + OSI-027; first compound 0.1 µM) | relative viability (Venetoclax + OSI-027; first compound 0.3162 µM) | relative viability (Venetoclax + OSI-027; first compound 1 µM) | relative viability (Selumetinib; 0.02 µM) | relative viability (Selumetinib; 0.06325 µM) | relative viability (Selumetinib; 0.2 µM) | relative viability (Selumetinib; 0.6325 µM) | relative viability (Venetoclax; 0.01 µM) | relative viability (Venetoclax; 0.03162 µM) | relative viability (Venetoclax; 0.1 µM) | relative viability (Venetoclax; 0.3162 µM) | relative viability (Venetoclax; 1 µM) |
| --- | --- | --- | --- | --- | --- | --- | --- | --- | --- | --- | --- | --- | --- | --- | --- | --- | --- | --- |
| SK-LU-1 | 1 | 0.978 | 0.862 | 0.614 | 0.38 | 0.436 | 0.345 | 0.365 | 0.329 | 1.07 | 0.904 | 0.8 | 0.484 | 0.953 | 1.16 | 0.991 | 1.01 | 1.02 |
| SK-MES-1 | 0.875 | 0.746 | 0.737 | 0.461 | 0.61 | 0.626 | 0.599 | 0.572 | 0.518 | 0.921 | 0.885 | 0.698 | 0.527 | 0.961 | 1.05 | 0.993 | 1 | 0.902 |
| SW 900 | 0.474 | 0.449 | 0.454 | 0.441 | 0.641 | 0.548 | 0.484 | 0.525 | 0.604 | 0.805 | 0.776 | 0.79 | 0.809 | 0.795 | 0.954 | 0.716 | 0.878 | 0.836 |
| SW 1573 | 0.82 | 0.725 | 0.857 | 0.769 | 0.573 | 0.658 | 0.585 | 0.506 | 0.529 | 0.882 | 0.814 | 0.754 | 0.833 | 0.974 | 0.985 | 0.911 | 0.969 | 0.877 |
